Assay results: US20040022827A1, “Remedy for hepatopathy” (CHUGAI SEIYAKU KABUSIKI KAISHA, priority 1997, published 2004)

Tests used:
[1] = system: Rat Model of Glactosamine-Induced Acute Hepatopathy; assay: Rat model of galactosamine-induced acute hepatopathy; format: in vivo; conditions: experimental fluids administered for one day; L-valine 16.88 g/L in lactated Ringer's, 100 mL/kg/day iv; mean ± SD
Experimental: (§1) Crj: Donryu male rats aged 8-9 weeks and weighing 250 g or so were used. During the experiment, the rats were given a dedicated feed MF (product of Oriental Yeast) and water ad libitum. D-Galactosamine HCl (product of Sigma) was dissolved in physiological saline, adjusted to pH 7.0 with 1 N NaOH and used as a solution containing 100 mg of D-galactosamine (hereinafter referred to simply as “galactosamine”) per milliliter. Carbon tetrachloride (product of Wako Pure Chemical Industries) was used as a 50% (v/v) solution in olive oil (product of Wako Pure Chemical Industries). After 12-h fasting, the rats were administered intraperitoneally with galactosamine in a volume of 10 mL/kg or subcutaneously with the carbon tetrachloride solution at a volume of 4 mL/kg to induce hepatopathy. Immediately after the administration, the rats were anesthetized with ether and a catheter was inserted into the right cervical vein of each animal and retained in the central vein. The catheter in the central vein was passed under the skin to connect the blade bones, fitted with a harness, passed through a protective coil and connected to a swivel (Bio-Cannula of Biomedica). The rats were transferred into a metabolic cage and subjected to the experiment under a non-anesthetized and unconstrained condition. The experimental fluids were administered constantly with the pumping speed set at 100 mL/kg/day. The experimental fluids were administered for 1-4 days. The treated groups were two, one being a control group administered with a lactated Ringer's injection [[…] (registered trademark) of Otuka Seiyaku] and the other being an L-Val group administered with valine (L-valine added to lactated Ringer's injection to a concentration of 16.88 g/L). A non-treated (NT) group was also set. After the end of administration of the experimental fluids, the rats were anesthetized with ether and blood was taken from the abdominal aorta; thereafter, autopsy was done to collect liver samples.

[2] = system: Rat Model of CC14-Induced Acute Hepatopathy; assay: Rat model of carbon tetrachloride-induced acute hepatopathy; format: in vivo; conditions: experimental fluids administered for two days; L-valine 16.88 g/L in lactated Ringer's, 100 mL/kg/day iv; mean ± SD
Experimental: as §1

[3] = system: Rat Model of Hepatic Insufficiency due to 90% Hepatectomy; assay: Rat model of hepatic insufficiency due to 90% hepatectomy; format: in vivo
Description: Crj: Donryu male rats aged 8-9 weeks and weighing 250 g or so were used. During the experiment, the rats were given a dedicated feed MF (product of Oriental Yeast) and water ad libitum. After 12-h fasting, the rats were anesthetized with ether and a catheter was inserted into the right cervical vein of each animal and retained in the central vein. Subsequently, the rats were underwent 90% hepatectomy according to the method of Gaub et al. (J. Gaub et al., Hepatology, 4, 902-904, 1984). The catheter in the central vein was passed under the skin to connect the blade bones, fitted with a harness, passed through a protective coil and connected to a swivel (Bio-Cannula of Biomedica). The rats were transferred into a metabolic cage and subjected to the experiment under a non-anesthetized and unconstrained condition. The experimental fluids were administered constantly with the pumping speed set at 100 mL/kg/day. Immediately after the hepatectomy, 3 mL of a 20% glucose solution was administered to the rats subcutaneously; for 3 days after the hepatectomy, the rats were allowed to drink a 10% glucose solution and thereafter tap water. The experimental fluids were administered for 4 or 6 days. The treated groups were two, on being a control group administered with a lactated Ringer's injection [Lactec (registered trademark) of Otuka Seiyaku] and the other being an L-val group administered with valine (L-valine added to lactated Ringer's injection to a concentration of 16.88 g/L). A non-treated (NT) group was also set. After the end of the administration of the experimental fluids, the rats were anesthetized with ether and blood was taken from the abdominal aorta; thereafter, autopsy was done to collect liver samples.

[4] = system: Rat Model of CCl4-Induced Chronic Hepatopathy; assay: Rat model of CCl4-induced chronic hepatopathy; format: in vivo; conditions: feed with 3 wt % L-valine for 14 weeks
Experimental: Crj: Donryu male rats aged 8-9 weeks were used. During the experiment, the rats were given a dedicated feed MF (product of Oriental Yeast) and water ad libitum. Carbon tetrachloride (product of Wako Pure Chemical Industries) was dissolved in olive oil (product of Wako Pure Chemical Industries) to prepare a 50% (v/v) solution, which was administered subcutaneously to the rats for 14 weeks on a twice-a-week basis (to give 28 shots), each time at a dose of 2 mL/kg, thereby preparing models of chronic hepatopathy. During the 14-week experiment, the rats were given an experimental feed which was a dedicated feed MF; this was given as such to the control group and as a mixture with 3 wt % L-valine to the L-val group. A non-treated (NT) group was also set. After the end of the 14-week experiment, the rats were anesthetized with ether and blood was taken from the abdominal aorta; thereafter, autopsy was done to collect liver samples.

[5] = system: Patient with chronic hepatitis C; assay: Peroral L-valine in patient with chronic hepatitis C; format: in vivo, human; conditions: 4-month period after start of oral L-valine 1 g three times a day; mean±SD of four monthly tests
Description: Patient ([…]) with chronic hepatitis C was given oral administration of L-valine on a three-times-a-day basis, with one gram at each time. The average GOT and GPT levels of the patient for a 4-month period before the administration of L-valine were 89.0±21.9 IU/L and 91.5±23.1 IU/L, respectively, in terms of mean±SD obtained by four tests on a monthly basis. The average GOT and GPT levels for a 4-month-period after the start of valine administration were 68.3±20.4 IU/L and 73.0±24.3 IU/L, respectively, in terms of mean±SD obtained by four tests on a monthly basis; thus, significant (p<0.05 in t-test) decreases were observed. An ameliorating effect was also observed in platelet counts; the average platelet count for a 6-month period before the administration of L-valine was 15.7±1.7 (×10^4) in terms of mean±SD obtained by four tests on a monthly or bimonthly basis, whereas the average platelet count for a 4-month period after the start of valine administration was 20.4±0.9 (×104) in terms of mean±SD obtained by four tests on a monthly basis; thus, a significant (p<0.01 in t-test) increase was observed. It was therefore clear that L-valine is also effective in patients with chronic hepatitis.

[6] = experimental fluids administered for four days, mean ± SD
[7] = experimental fluids administered for six days, 20 animals

## CC(C)[C@H](N)C(=O)O [L-Val, L-valine]
[1]
  Alb: 2.5 ± 0.1 g/dL
  Fischer ratio BCAA/AAA: 6.42 ± 0.40
  GOT: 760.2 ± 215.4 IU/1
  GPT: 415.7 ± 180.8 IU/1
  LDH: 973.7 ± 362.0 IU/1
  TP: 4.9 ± 0.3 g/dL
[2]
  Fischer ratio BCAA/AAA: 4.32 ± 1.74
  GOT: 3241.9 ± 2567.2 IU/1
  GPT: 1951.2 ± 1730.9 IU/l
  LDH: 3040.1 ± 4163.3 IU/l
  TP: 5.1 ± 0.4 g/dL
[3]; [6]
  Alb: 1.8 ± 0.2 g/dL
  Fischer ratio BCAA/AAA: 3.33 ± 1.11
  GOT: 402.3 ± 302.4 IU/l
  GPT: 134.9 ± 76.3 IU/l
  TP: 3.6 ± 0.5 g/dL
[3]; [7]
  No. of deaths: 1
  No. of viable cases: 19
[3]; experimental fluids administered for six days, 20 animals, P < 0.01 vs control
  Viability: 95%
[4]; 10 animals
  No. of deaths: 0
  No. of viable cases: 10
  Retention of ascites (No. of cases): 1
  Retention of pleural effusion (No. of cases): 0
[4]; mean ± SD
  Fischer ratio BCAA/AAA: 3.17 ± 0.96
[5]
  average GOT level: 68.3±20.4 IU/L
  average GPT level: 73.0±24.3 IU/L
  average platelet count: 20.4±0.9 ×104
